Measured values from US5461046A, “1-,2-,3-,4-,5-,6-,7-,8-, and/or 9-substituted dibenzoxazepine compounds, pharmaceutical compositions and methods for treating pain” (G. D. Searle & Co., priority 1993, dated 1995).
Where two headings read alike, the source gives them in different places.

Experiments:
[1] = molecular target: T1, prostaglandin E2-induced contractions of segments of guinea pig ileum (Cavia porcellus, UniProt A0A286XHJ6); experiment: Prostaglandin (PGE) Antagonism Assay in guinea pig ileum; settings: initial concentration 3 micromolar; estimated pA2 (slope -1.0 assumed) or Schild plot pA2
T1 construct: The ilea were then quickly removed from the guinea pigs; from tissue; host or cells: ileum segments of male albino guinea pigs
T1 sequence (A0A286XHJ6 1-405): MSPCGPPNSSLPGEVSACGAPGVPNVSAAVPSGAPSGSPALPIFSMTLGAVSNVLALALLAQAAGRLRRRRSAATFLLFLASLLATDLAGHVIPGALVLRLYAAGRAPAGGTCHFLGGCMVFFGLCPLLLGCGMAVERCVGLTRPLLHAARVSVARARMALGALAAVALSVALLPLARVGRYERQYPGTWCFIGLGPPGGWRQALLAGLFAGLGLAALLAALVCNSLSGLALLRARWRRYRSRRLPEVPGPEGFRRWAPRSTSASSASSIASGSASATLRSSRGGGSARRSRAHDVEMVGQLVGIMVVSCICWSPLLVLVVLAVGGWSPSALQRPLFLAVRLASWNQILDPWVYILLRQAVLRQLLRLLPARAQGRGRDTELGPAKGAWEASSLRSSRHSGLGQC
Experimental: In order to determine the effectiveness of several of the compounds of the present invention ("test compounds") as prostaglandin E2 antagonists,a prostaglandin antagonism assay was conducted, as described below, to determine the ability of these compounds to inhibit prostaglandin E2 -induced contractions of segments of guinea pig ileum.
Male albino guinea pigs weighing 200 to 500 grams were sacrificed by cervical dislocation. The ilea were then quickly removed from the guinea pigs and placed in a modified Tyrode solution, a solution which is known to those skilled in the art, containing one-half of the usual amount of magnesium ions.
Segments of ileum about 2 cm long were then cut and mounted in a 10-mL tissue bath containing the modified Tyrode solution. The solution was maintained at 37° C. and aerated with a gaseous mixture of 95% oxygen and 5% carbon dioxide. Data for a control prostaglandin E2 dose response curve plotting concentration of prostaglandin E2 versus the intensity of contractions, detected isotonically, was then obtained by experimentally adjusting the dose of the prostaglandin E2 being injected into the tissue bath, in a manner known by those of skill in the art.
Solutions or suspensions containing an initial concentration (3 micromolar) of a test compound in modified Tyrode solution ("test solutions/suspensions") were then separately substituted for the control bath solution. Each test solution/suspension was then kept in constant contact with the ileum tissue, except for brief periods to drain the bath in preparation for rinsing with fresh test solution/suspension. A second prostaglandin E2 dose response curve was then generated for prostaglandin E2 in the presence of a test compound.
A dose ratio of EC50 doses was then calculated from the results of each test in a manner known by those of skill in the art. A test compound was determined to be "active" if the initial concentration used yielded at least a two-fold shift (dose ratio greater than or equal to 2) in the dose response curve for prostaglandin E2.
The compounds of the present invention which were tested in this assay, and for which results are presented in Table 2, correspond to the particular examples specified in Table 2.

[2] = test system: phenylbenzoquinone (PBQ)-induced writhing in mice; experiment: Writhing Assay (phenylbenzoquinone-induced writhing, analgesia); type: in vivo, Charles River male albino mice; settings: for responders at 30 mg/kg: Mus musculus, 25 min, 25 min before PBQ i.p., number of mice out of ten with analgesia
Source text: The Writhing Assay is one of the most widely-used experimental procedures for measuring the analgesic activity of different narcotic and nonnarcotic analgesic agents, and involves the continuous, chemically-induced pain of visceral origin to an animal, such as a mouse or rat. [Gyires et al., Arch. int. Pharmacodyn, 267, 131-140 (1984); C. Vander Wende et al., Fed. Proc., 15, 494 (1956); Koster et al., Fed. Proc., 18, 412 (1959); and Witken et al., J. Pharmacol. exp. Ther., 133, 400-408 (1961).] Chemicals which may be used to induce this pain include phenylbenzoquinone (PBQ) and acetic acid. As a result of the chemical irritation to the animal, a characteristic stretching and writhing of the animal (dorsiflexion of the animal's back, extension of its hindlimbs and the strong contraction of its abdominal musculature) will generally occur. […] Drugs which reduce the number of writhes of the animal appear to restore the normal nociceptive threshold of the animal.
Charles River male albino mice, weighing 20 to 30 grams were used in this assay.
Twenty-five minutes after subcutaneous or intragastric administration to ten mice of 30 mg per kilogram of body weight of a compound of the present invention ("test compound"), […] per 10 g of body weight of a 0.025% w/v solution of PBQ was injected intraperitoneally into each mouse. Ten mice which were given saline in place of a test compound of the invention were used as a control group.
Five minutes later, each mouse was individually placed into a glass beaker for observation, and the number of writhes occurring during the following ten-minute period was counted.
A test compound was considered to have produced analgesia in a mouse if, in accordance with the conditions set forth above, and under the test criteria employed for this assay, after the administration of 30 mg per kilogram of body weight of a compound of the present invention to the mouse, the number of writhes elicited by a mouse injected with PBQ was equal to, or less than, one-half the median number of writhes recorded for the saline-treated control group of mice that day, as described by Taber in "Predictive Value of Analgesic Assays in Mice and Rats," Advances in Biochemical Psychopharmacology, 8, 191 (1974).
The results for the particular compounds of the present invention analyzed in this assay, and discussed in the examples identified below which correspond thereto, are presented in Table 2 hereinbelow under the heading "WRITHING ASSAY." The fractions indicate the number of mice out of ten in which a test compound produced analgesia.

[3] = test system: stimulant actions of prostaglandins on isolated smooth muscle preparations; settings: cited from earlier work
[4] = test system: micturition reflex in rats; settings: urethane-anesthetized rats; cited from earlier work
[5] = ip, 30 mg per kg i.g., read-out: WRITHING ASSAY Number Out of Ten I.G. (converted)
[6] = sc, 30 mg per kg s.c., read-out: WRITHING ASSAY Number Out of Ten S.C.

Kb [1]	Compound	responders at 30 mg/kg [2, 5]	responders at 30 mg/kg [2, 6]	potency in the Writhing Assay (in words) ([2]; 30 mg per kg s.c. or i.g.)	inhibition of stimulant actions of prostaglandins [3]	bladder capacity [4]	voiding efficiency of micturition [4]
2090 nM	CCS(=O)(=O)CCC(=O)NNC(=O)N1Cc2ccccc2Oc2ccc(C)cc21 [Example 17, 8-methyldibenz[b,f][1,4]oxazepine-10(11H)-carboxylic acid, 2-[3-(ethylsulfonyl)-1-oxopropyl]hydrazide]	22.2%	20%	–	–	–	–
2690 nM	CCS(=O)(=O)CCC(=O)NNC(=O)N1Cc2cccc(Cl)c2Oc2ccccc21 [Example 18, 4-chlorodibenz[b,f][1,4]oxazepine-10(11H)-carboxylic acid, 2-[3-(ethylsulfonyl)-1-oxopropyl]hydrazide]	40%	40%	–	–	–	–
2570 nM	CCS(=O)(=O)CCC(=O)NNC(=O)N1Cc2ccccc2Oc2ccc(O)cc21 [Example 19, 8-hydroxydibenz[b,f][1,4]oxazepine-10(11H)-carboxylic acid, 2-[3-(ethylsulfonyl)-1-oxopropyl]hydrazide]	40%	30%	–	–	–	–
1260 nM	CCS(=O)(=O)CCC(=O)NNC(=O)N1Cc2ccccc2Oc2ccc(C(F)(F)F)cc21 [Example 20, 8-(trifluoromethyl)dibenz[b,f][1,4]oxazepine-10(11H)-carboxylic acid, 2-[3-(ethylsulfonyl)-1-oxopropyl]hydrazide]	60%	60%	most potent compound of the invention tested in this assay	–	–	–
1050 nM	CCS(=O)(=O)CCC(=O)NNC(=O)N1Cc2ccccc2Oc2ccccc21 [Example 21, Dibenz[b,f][1,4]oxazepine-10(11H)-carboxylic acid, 2-[3-(ethylsulfonyl)-1-oxopropyl]hydrazide]	50%	10%	–	–	–	–
–	O=C(Cc1ccccc1)NNC(=O)N1Cc2ccccc2Oc2ccc(Cl)cc21 [SC-18637]	–	–	–	inhibit the stimulant actions of prostaglandins on isolated smooth muscle preparations	–	–
–	CC(=O)NNC(=O)N1Cc2ccccc2Oc2ccc(Cl)cc21 [SC-19220]	–	–	–	inhibit the stimulant actions of prostaglandins on isolated smooth muscle preparations	increased	reduced
